Molecules are shown by their SMILES.

The values that follow come from US6358966B2, “Treatment of depression” (H. Lundbeck A/S, priority 1998, dated 2002).

Assay [1] relates to chronic mild stress induced anhedonia in rats. Nature of the assay: chronic mild stress induced anhedonia in rats (sucrose consumption). The format is in vivo, Male Wistar rats. From the text:
The model of chronic mild stress induced anhedonia in rats. […] This model is based on the observation that chronic mild stress causes a gradual decrease in sensitivity to rewards, for example consumption of sucrose, and that this decrease is dose-dependently reversed by chronic treatment with antidepressants. The method has previously been described and more information with respect to the test appears from Willner, Paul, Psycopharmacology, 1997, 134, 319-329. Male Wistar rats were trained to consume a 1% sucrose solution by nine 1-hour baseline tests in which sucrose was presented in the home cage following 14 h food and water deprivation. One group of animals was subjected to a chronic mild stress procedure for a period of 9 consecutive weeks. Each week of the stress regime consisted of two periods of food and water deprivation, two periods of 45-degree cage tilt, two periods of intermittent illumination (light on and off every 2 h), two periods of soiled cage (250 ml water saw dust bedding), two periods of paired housing, two periods of low stroboscobic illumination (150 flashes/min) and two periods of no stress. All stress periods were of 12-14 hours duration and followed continuously, day and night. Control animals were housed in separate rooms with food and water freely available except for a 14-h period preceding each sucrose test, and they had no contact with stressed animals. Stressed animals as well as control animals were divided into matched subgroups, and for subsequent five weeks they received daily intraperitoneal injections (1 ml/kg body weight) of vehicle (minimum amount of propylene glycol and methane sulfonic acid (1:1) diluted with water) or test compound. Sucrose tests were carried out 24 hours following to last drug treatment.

For assay [2], the system named is sigma2. The note with it: cited from earlier work.
The test system of assay [3] is black/white exploration test in rats. Conditions: cited from earlier work.
Assay [4] has as its system psychosis. The note with it: cited from earlier work.

For `Fc1ccc(-n2cc(CCCCN3CCC4(CC3)OCc3ccccc34)c3ccccc32)cc1` [compound of the invention, 1′-[4-[1-(4-fluorophenyl)-1H-indole-3-yl]-1-butyl]-spiro[isobenzofuran-1(3H),4′-piperidine]], in assay [1] (non-stressed control rats, daily i.p. for five weeks), the “consumption of sucrose in the control animals” value is “did not significantly affect”. Besides, the “sucrose intake in stressed animals versus initial scores” value in assay [1] (stressed rats, 1.0 mg/kg daily i.p.) is “significantly increased from initial scores after three, four and five weeks”. Moreover, the “reversal of chronic mild stress induced deficit in sucrose intake” value in assay [1] (stressed rats, 1.0 mg/kg daily i.p. for five weeks) was “able to reverse”. Further, the “sigma ligand potency and selectivity” value in assay [2] is “potent and selective sigma ligand, in particular a sigma2 ligand”. The “anxiolytic activity in the black/white exploration test” value in assay [3] was “active over a large dose range”.
Take `C[C@@H]1CN(CCCn2c3ccccc3c3ccccc32)C[C@H](C)N1` [rimcazole]: the “clinical effect in the treatment of psychosis” value in assay [4] is on record as “clinically shows effect in the treatment of psychosis”.
